Data published in ChEMBL document CHEMBL1139272, “Beyond the MEK-pocket: can current MEK kinase inhibitors be utilized to synthesize novel type III NCKIs? Does the MEK-pocket exist in kinases other than MEK?” (Bioorg Med Chem Lett, 2009).

Tests used:
[1] = molecular target: T1, Serine/threonine-protein kinase Sgk1 (Homo sapiens) (UniProt O00141); assay: Binding affinity to SGK at 10 uM
T1 sequence (whole entry): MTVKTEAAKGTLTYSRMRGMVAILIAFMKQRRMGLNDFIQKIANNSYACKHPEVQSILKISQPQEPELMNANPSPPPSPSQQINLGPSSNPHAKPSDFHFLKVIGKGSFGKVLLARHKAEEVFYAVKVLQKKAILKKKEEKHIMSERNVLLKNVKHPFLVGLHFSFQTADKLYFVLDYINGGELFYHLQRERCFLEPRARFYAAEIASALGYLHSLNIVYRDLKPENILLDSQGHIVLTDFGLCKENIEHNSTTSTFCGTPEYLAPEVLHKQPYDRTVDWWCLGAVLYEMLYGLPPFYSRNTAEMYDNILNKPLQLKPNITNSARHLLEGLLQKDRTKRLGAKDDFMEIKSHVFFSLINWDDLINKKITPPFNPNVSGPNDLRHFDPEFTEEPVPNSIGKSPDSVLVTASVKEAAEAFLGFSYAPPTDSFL

[2] = Binding affinity to GSK3 at 10 uM
[3] = molecular target: Serine/threonine-protein kinase PAK 4 (Homo sapiens) (UniProt O96013); assay: Binding affinity to PAK4 at 10 uM
[4] = molecular target: High affinity nerve growth factor receptor (Homo sapiens) (UniProt P04629); assay: Binding affinity to TrkA at 10 uM
[5] = molecular target: T2, Ephrin type-A receptor 2 (Homo sapiens, UniProt P29317); assay: Binding affinity to EPHA2 at 10 uM
[6] = Binding affinity to NEK at 10 uM
[7] = molecular target: MAP kinase-activated protein kinase 2 (Homo sapiens) (UniProt P49137); assay: Binding affinity to MK2 at 10 uM
[8] = Binding affinity to PKC at 10 uM
[9] = molecular target: T3, Aurora kinase A (Homo sapiens) (UniProt O14965); assay: Binding affinity to Aurora A at 10 uM
T3 sequence (whole entry): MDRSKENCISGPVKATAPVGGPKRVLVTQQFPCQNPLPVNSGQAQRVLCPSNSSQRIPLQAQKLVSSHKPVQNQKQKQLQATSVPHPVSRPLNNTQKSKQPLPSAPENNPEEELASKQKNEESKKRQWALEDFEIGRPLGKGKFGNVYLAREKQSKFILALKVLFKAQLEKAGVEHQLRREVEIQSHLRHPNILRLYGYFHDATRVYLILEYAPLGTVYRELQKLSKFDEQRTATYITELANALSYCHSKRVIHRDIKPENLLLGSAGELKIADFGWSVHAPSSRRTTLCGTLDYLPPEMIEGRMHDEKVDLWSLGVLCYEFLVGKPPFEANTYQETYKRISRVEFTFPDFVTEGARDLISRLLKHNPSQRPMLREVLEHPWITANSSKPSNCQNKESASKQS

[10] = Binding affinity to p38 at 10 uM
[11] = molecular target: Fibroblast growth factor receptor 1 (Homo sapiens, UniProt P11362); assay: Binding affinity to FGFR1
[12] = molecular target: Vascular endothelial growth factor receptor 2 (Homo sapiens, UniProt P35968); assay: Binding affinity to VEGFR2
[13] = molecular target: Tyrosine-protein kinase BTK (Homo sapiens, UniProt Q06187)
[14] = Binding affinity to p38
[15] = molecular target: T2, Ephrin type-A receptor 2; assay: Binding affinity to ECK
[16] = molecular target: T4, Aurora kinase A (Homo sapiens, UniProt O14965); assay: Binding affinity to Aurora A
T4 sequence (O14965 whole entry): T3 sequence (whole entry)

[17] = molecular target: Protein kinase C beta type (Homo sapiens, UniProt P05771); assay: Binding affinity to PKC beta2
[18] = molecular target: Dual specificity protein kinase CLK1 (Homo sapiens, UniProt P49759); assay: Binding affinity to CLK1
[19] = molecular target: Tyrosine-protein kinase ABL1 (Homo sapiens, UniProt P00519); assay: Binding affinity to ABL
[20] = molecular target: Proto-oncogene tyrosine-protein kinase Src (Homo sapiens, UniProt P12931); assay: Binding affinity to SRC
[21] = molecular target: Mitogen-activated protein kinase kinase kinase 9 (Homo sapiens, UniProt P80192); assay: Binding affinity to MAP3K9
[22] = molecular target: Tyrosine-protein kinase Lck (Homo sapiens, UniProt P06239)
[23] = Binding affinity to MEK
[24] = molecular target: T5, Serine/threonine-protein kinase 3 (Homo sapiens, UniProt Q13188)
T5 sequence (Q13188 whole entry): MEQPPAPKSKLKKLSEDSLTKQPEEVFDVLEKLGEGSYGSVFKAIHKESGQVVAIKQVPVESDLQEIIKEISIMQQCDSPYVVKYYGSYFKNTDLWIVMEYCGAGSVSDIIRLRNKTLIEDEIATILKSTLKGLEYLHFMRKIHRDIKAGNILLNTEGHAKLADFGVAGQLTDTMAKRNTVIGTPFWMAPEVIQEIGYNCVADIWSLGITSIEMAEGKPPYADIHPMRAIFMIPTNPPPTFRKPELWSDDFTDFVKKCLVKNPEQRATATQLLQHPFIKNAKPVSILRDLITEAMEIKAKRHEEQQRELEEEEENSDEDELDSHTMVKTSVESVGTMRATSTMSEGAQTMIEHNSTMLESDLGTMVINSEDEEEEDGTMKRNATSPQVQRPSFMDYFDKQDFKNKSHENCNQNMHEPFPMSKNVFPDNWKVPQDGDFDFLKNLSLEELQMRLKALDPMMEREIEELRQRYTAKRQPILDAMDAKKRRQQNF

Vascular endothelial growth factor receptor 2, sequence (P35968 whole entry): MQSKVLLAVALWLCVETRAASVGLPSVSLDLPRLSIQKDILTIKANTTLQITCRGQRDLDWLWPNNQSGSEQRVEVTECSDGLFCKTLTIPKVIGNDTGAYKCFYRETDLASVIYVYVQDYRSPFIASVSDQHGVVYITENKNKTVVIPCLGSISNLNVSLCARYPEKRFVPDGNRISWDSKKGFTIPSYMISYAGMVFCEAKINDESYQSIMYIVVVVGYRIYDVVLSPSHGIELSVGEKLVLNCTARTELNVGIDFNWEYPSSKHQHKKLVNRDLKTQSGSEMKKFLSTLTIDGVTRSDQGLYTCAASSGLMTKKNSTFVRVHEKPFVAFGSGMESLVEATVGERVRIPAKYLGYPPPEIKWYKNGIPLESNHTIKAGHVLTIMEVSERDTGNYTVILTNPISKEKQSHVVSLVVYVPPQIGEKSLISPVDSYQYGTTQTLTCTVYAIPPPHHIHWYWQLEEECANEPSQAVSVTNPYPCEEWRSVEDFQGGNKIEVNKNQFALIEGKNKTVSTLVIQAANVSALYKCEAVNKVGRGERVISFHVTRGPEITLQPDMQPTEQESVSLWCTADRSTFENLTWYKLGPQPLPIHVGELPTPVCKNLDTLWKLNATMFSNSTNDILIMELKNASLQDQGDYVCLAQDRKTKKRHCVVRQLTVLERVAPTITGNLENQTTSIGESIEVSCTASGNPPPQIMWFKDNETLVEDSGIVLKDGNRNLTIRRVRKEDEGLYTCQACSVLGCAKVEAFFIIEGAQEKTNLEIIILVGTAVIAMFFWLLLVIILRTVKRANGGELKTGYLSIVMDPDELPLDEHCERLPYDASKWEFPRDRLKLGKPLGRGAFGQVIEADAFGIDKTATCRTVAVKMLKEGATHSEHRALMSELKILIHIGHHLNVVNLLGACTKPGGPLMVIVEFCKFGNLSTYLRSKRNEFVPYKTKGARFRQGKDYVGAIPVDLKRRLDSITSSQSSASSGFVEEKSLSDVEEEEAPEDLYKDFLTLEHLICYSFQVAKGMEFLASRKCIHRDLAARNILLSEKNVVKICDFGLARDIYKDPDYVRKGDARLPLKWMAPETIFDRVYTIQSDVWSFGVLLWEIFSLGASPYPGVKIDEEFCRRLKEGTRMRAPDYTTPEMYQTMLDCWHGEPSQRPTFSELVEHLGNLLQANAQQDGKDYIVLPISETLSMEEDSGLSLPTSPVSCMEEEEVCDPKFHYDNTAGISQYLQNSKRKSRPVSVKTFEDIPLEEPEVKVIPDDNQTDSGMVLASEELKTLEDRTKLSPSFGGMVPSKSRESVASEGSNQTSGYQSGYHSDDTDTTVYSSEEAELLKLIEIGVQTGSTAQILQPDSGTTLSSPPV
Serine/threonine-protein kinase PAK 4 (Homo sapiens), sequence (O96013 whole entry, looked up): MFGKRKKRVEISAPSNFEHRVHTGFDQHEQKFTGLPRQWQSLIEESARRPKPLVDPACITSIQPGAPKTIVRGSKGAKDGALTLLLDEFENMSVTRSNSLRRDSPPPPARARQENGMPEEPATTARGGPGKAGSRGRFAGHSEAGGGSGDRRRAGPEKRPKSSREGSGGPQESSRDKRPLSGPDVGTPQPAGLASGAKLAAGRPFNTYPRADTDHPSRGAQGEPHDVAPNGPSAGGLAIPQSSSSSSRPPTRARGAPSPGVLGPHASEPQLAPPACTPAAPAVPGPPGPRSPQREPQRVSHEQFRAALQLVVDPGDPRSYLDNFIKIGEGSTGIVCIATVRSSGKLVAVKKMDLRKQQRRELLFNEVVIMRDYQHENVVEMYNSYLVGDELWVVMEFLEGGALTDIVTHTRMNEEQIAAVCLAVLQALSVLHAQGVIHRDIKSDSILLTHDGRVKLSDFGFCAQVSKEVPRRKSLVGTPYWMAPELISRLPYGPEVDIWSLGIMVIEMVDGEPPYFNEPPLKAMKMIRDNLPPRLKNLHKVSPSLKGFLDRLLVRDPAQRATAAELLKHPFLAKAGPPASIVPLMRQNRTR
Proto-oncogene tyrosine-protein kinase Src, sequence (P12931 2-536 limits assumed): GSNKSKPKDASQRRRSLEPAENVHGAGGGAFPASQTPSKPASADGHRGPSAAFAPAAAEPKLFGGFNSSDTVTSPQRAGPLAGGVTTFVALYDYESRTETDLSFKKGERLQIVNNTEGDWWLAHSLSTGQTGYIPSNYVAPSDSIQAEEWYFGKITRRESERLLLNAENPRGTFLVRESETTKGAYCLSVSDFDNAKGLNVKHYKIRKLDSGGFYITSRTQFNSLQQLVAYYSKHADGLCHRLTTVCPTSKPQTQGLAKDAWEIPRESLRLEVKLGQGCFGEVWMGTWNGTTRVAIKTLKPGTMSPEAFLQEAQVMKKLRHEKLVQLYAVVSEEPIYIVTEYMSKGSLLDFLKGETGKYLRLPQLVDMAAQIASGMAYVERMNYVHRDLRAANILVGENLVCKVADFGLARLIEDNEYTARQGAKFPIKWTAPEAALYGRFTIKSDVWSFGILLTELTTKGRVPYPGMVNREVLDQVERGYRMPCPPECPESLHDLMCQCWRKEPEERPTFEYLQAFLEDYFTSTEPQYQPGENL
High affinity nerve growth factor receptor (Homo sapiens), sequence (P04629 33-796 limits assumed): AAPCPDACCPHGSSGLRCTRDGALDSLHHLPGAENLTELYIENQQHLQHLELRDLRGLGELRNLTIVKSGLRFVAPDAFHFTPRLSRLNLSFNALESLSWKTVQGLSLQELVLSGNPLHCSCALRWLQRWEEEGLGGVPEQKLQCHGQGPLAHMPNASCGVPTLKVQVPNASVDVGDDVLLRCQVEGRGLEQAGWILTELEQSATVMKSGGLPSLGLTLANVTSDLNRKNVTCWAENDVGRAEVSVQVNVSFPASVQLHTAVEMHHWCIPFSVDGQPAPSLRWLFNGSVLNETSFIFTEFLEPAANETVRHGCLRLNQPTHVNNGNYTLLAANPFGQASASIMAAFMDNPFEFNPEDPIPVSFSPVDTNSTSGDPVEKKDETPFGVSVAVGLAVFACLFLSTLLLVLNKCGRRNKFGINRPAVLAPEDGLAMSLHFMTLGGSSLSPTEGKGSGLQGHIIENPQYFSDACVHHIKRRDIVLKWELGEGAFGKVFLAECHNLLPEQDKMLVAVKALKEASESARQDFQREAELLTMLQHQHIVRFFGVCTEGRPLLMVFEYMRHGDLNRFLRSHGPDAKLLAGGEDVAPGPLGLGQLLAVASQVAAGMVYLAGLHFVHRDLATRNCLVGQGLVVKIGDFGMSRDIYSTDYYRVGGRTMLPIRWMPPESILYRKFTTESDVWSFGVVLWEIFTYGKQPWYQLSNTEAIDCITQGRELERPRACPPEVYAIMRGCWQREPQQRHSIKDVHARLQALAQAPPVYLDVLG
Mitogen-activated protein kinase kinase kinase 9, sequence (P80192 whole entry): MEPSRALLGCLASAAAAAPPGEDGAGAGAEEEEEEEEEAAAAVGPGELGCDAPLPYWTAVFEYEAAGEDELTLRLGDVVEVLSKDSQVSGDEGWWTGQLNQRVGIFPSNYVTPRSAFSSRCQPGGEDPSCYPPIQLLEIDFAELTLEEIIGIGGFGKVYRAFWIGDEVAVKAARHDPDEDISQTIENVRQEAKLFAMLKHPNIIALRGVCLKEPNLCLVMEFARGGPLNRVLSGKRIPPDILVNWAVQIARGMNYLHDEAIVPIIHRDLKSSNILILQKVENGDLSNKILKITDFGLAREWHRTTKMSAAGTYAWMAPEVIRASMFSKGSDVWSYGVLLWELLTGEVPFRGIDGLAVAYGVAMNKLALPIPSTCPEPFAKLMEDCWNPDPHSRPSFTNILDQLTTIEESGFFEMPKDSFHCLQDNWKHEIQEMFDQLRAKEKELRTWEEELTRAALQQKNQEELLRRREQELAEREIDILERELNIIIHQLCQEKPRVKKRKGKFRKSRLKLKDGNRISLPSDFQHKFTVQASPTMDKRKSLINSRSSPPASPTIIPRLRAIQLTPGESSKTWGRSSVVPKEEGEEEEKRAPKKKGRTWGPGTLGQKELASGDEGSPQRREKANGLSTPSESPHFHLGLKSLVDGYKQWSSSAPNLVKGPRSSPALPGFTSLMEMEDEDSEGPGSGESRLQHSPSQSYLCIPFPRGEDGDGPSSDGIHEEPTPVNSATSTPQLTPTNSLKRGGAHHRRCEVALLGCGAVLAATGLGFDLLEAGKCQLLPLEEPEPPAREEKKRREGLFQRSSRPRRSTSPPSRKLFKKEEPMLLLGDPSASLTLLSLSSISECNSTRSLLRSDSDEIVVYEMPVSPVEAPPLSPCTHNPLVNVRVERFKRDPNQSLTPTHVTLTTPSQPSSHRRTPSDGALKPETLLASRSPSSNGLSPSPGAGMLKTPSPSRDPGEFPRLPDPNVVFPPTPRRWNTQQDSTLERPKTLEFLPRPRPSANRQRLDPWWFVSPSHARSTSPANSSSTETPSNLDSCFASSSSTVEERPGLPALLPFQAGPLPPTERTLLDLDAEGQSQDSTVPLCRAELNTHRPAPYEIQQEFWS
MAP kinase-activated protein kinase 2 (Homo sapiens), sequence (P49137 whole entry, looked up): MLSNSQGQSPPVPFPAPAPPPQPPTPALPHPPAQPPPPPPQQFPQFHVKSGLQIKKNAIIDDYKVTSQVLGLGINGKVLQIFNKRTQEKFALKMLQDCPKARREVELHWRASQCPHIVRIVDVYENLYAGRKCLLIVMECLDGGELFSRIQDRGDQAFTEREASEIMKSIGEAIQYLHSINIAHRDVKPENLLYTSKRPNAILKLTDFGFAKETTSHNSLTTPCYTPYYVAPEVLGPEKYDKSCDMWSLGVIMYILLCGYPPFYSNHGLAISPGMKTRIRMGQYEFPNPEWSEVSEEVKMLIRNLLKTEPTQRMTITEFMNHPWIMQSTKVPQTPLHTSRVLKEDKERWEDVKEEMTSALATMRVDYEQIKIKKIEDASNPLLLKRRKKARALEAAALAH

inhibition [1] [%] | inhibition [2] [%] | inhibition [3] [%] | inhibition [4] [%] | inhibition [5] [%] | inhibition [6] [%] | inhibition [7] [%] | inhibition [8] [%] | inhibition [9] [%] | inhibition [10] [%] | IC50 [11] [µM] | IC50 [12] [µM] | IC50 [14] [µM] | IC50 [15] [µM] | IC50 [16] [nM] | IC50 [17] [µM] | IC50 [18] [µM] | IC50 [19] [µM] | IC50 [20] [µM] | SMILES | other results
0 | 0 | 10 | 14 | 9 | 2 | 9 | 9 | 11 | 5 | – | – | – | – | – | – | – | – | – | O=C(NOCCO)c1ccc(F)c(F)c1Nc1ccc(I)cc1F | –
– | – | – | – | – | – | – | – | – | – | > 30 | > 30 | 10 | > 30 | 4000 | > 30 | 3 | 4 | 3 | O=C(CS(=O)(=O)c1ccc(Cl)cc1)N/N=C/c1cc(C(=O)O)c(Nc2ccc(I)cc2F)c(F)c1F | IC50 [13]: > 30 µM
0 | 5 | 0 | 0 | 9 | 0 | 2 | 1 | 5 | 1 | – | – | – | – | – | – | – | – | – | O=C(NOCCO)c1cc(/C=N/OCCO)c(F)c(F)c1Nc1ccc(I)cc1F | –
39 | 22 | 33 | 1 | 37 | 25 | 18 | 25 | 29 | 4 | – | – | – | – | – | – | – | – | – | O=C(O)CCCO/N=C/c1cc(C(=O)NOCCO)c(Nc2ccc(I)cc2F)c(F)c1F | –
– | – | – | – | – | – | – | – | – | – | > 30 | 18 | > 30 | > 30 | 1000 | > 30 | > 30 | > 30 | > 30 | CS(=O)(=O)c1ccc(CNCc2cc(C(=O)O)c(Nc3ccc(I)cc3F)c(F)c2F)cc1 | IC50 [13]: > 30 µM; IC50 [21]: 5 µM; IC50 [22]: > 30 µM
– | – | – | – | – | – | – | – | – | – | – | – | – | – | – | – | – | – | – | O=C(O)c1ccc(F)c(F)c1Nc1ccc(I)cc1Cl [ZAPNOMETINIB] | IC50 [23]: 5.73 nM
0 | 25 | 22 | 27 | 13 | 13 | 5 | 0 | 2 | 5 | – | – | – | – | – | – | – | – | – | O=C(NOCCO)c1cc(COCCO)c(F)c(F)c1Nc1ccc(I)cc1F | –
– | – | – | – | – | – | – | – | – | – | > 30 | > 30 | > 30 | > 30 | 2000 | 2 | > 30 | > 30 | 4 | NC(=O)C[C@H](N)C(=O)NCc1cc(C(=O)O)c(Nc2ccc(I)cc2F)c(F)c1F | IC50 [24]: 6 µM; IC50 [13]: > 30 µM; IC50 [21]: > 30 µM; IC50 [22]: > 30 µM
– | – | – | – | – | – | – | – | – | – | – | – | – | – | – | – | – | – | – | Cc1cc(I)ccc1Nc1c(C(=O)O)ccc(F)c1F | IC50 [23]: 11 nM
60 | 36 | 28 | 0 | 22 | 20 | 28 | 27 | 21 | 19 | – | – | – | – | – | – | – | – | – | O=C(O)c1ccc(CO/N=C/c2cc(C(=O)NOCCO)c(Nc3ccc(I)cc3F)c(F)c2F)o1 | –
0 | 16 | 0 | 0 | 7 | 0 | 1 | 10 | 0 | 31 | – | – | – | – | – | – | – | – | – | COCCCNC(=O)N/N=C/c1cc(C(=O)NOCCO)c(Nc2ccc(I)cc2F)c(F)c1F | –

SMILES | inhibition [1] [%] | inhibition [2] [%] | inhibition [3] [%] | inhibition [4] [%] | inhibition [5] [%] | inhibition [6] [%] | inhibition [7] [%] | inhibition [8] [%] | inhibition [9] [%] | inhibition [10] [%] | IC50 [11] [µM] | IC50 [12] [µM] | IC50 [14] [µM] | IC50 [15] [µM] | IC50 [16] [nM] | IC50 [17] [µM] | IC50 [18] [µM] | IC50 [19] [µM] | IC50 [20] [µM] | other results
O=C(N/N=C/c1cc(C(=O)O)c(Nc2ccc(I)cc2F)c(F)c1F)c1ccc(CO)o1 | – | – | – | – | – | – | – | – | – | – | 2 | 3 | 5 | 3 | 3000 | > 30 | 15 | 0.3 | 0.1 | IC50 [24]: > 30 µM; IC50 [21]: 4 µM
